According to patent US7244727B2, “Fused bicyclic nitrogen-containing heterocycles” (Japan Tobacco Inc., priority 2002, dated 2007):

What was measured:
[1] = target: T1, human DGAT1 (Homo sapiens, UniProt O75907); assay: DGAT Scintillation Proximity Assay (SPA) with membranes of insect cells expressing human flagtag DGAT1; assay type: biochemical; settings: read-out: hDGAT1 IC50
T1 construct: made in house; host or cells: insect cells (sf9, sf21 or High Five) infected with baculovirus; total cell membranes
T1 sequence (O75907 1-488): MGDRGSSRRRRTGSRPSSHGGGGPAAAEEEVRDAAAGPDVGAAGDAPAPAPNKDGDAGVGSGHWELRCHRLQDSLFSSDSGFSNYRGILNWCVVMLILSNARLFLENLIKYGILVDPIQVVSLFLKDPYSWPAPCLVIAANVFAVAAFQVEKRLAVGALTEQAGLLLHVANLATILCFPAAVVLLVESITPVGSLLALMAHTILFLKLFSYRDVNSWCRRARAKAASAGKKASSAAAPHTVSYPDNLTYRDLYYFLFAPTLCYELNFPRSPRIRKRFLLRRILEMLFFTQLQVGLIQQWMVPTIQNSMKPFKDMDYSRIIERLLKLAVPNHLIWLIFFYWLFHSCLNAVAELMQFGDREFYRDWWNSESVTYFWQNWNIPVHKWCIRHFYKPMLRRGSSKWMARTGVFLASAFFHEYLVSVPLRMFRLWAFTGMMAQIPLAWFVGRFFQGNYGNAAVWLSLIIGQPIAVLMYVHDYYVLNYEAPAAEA
Method: In such an assay human DGAT1 is cloned from a human liver cDNA library. PCR is used to add a restriction site and flag epitope at the most 5′ end and a restriction site at the 3′ end of the sequence. Thereafter, human flagtag (FT) DGAT1 baculovirus may be generated using a Bac-to-Bac Baculovirus Expression System® (Invitrogen). Insect cells (e.g., sf9, sf2 1, or High Five) are infected for 24 to 72 h and collected by centrifugation. Cell pellets are resuspended in homogenization buffer and lysed using a homogenization device, such as a Microfluidizer. Total cell membranes are collected by ultracentrifugation at 45,000 rpm for 1 h.
A small aliquot (0.2 μg/well) of membrane is incubated with 10 μM compound or mercuric chloride (as positive control for inhibition) in the presence of enzyme substrate, dioleoyl glycerol (200 μM) in 384 well plates, final volume 50 gL per well. […] The reaction is stopped by adding Wheat Germ Agglutinin (WGA) SPA beads (0.2 mg) in mercuric chloride. Cell membranes are allowed to couple to the beads overnight. The signal can be measured using, for example, a Chemiluminescence Image Plate Reader (CLIPR) or TopCount device.

Row | IC50 [1] [nM] | melting point | Structure (SMILES)
1 | > 100 | > 220 °C | Nc1ncnc2c1N=C(c1ccc(F)cc1)CO2 [Example 1-2]
2 | > 100 | > 220 °C | Nc1ncnc2c1N=C(c1ccc(Cl)cc1)CO2 [Example 1-3]
3 | > 100 | 217 to 219 °C | Cc1ccc(C2=Nc3c(N)ncnc3OC2)cc1 [Example 1-4]
4 | > 100 | 206 °C (dec.) | CCN(CC)c1ccc(C2=Nc3c(N)ncnc3OC2)cc1 [Example 1-6]
5 | > 100 | > 220 °C | Nc1ncnc2c1N=C(c1cccc(Br)c1)CO2 [Example 1-7]
6 | > 100 | > 220 °C | Nc1ncnc2c1N=C(c1ccc(C(F)(F)F)cc1)CO2 [Example 1-8]
7 | > 100 | 176 to 178 °C | CC(C)c1ccc(C2=Nc3c(N)ncnc3OC2)cc1 [Example 1-9]
8 | > 100 | > 250 °C | Nc1ncnc2c1N=C(c1ccc(-c3ccccc3)cc1)CO2 [Example 1-11]
9 | > 100 | 191 to 193 °C | COc1ccc(C2=Nc3c(N)ncnc3OC2)cc1 [Example 1-12]
10 | > 100 | > 250 °C | Nc1ncnc2c1N=C(c1ccc([N+](=O)[O-])cc1)CO2 [Example 1-13]
11 | > 100 | 75 to 77 °C | Nc1cccc2c1N=C(c1ccc(Br)cc1)CO2 [Example 1-15]
12 | > 100 | 215 °C | Nc1ncnc2c1N=C(c1ccccn1)CO2 [Example 1-16]
13 | > 100 | > 220 °C | Nc1ncnc2c1N=C(c1ccncc1)CO2 [Example 1-18]
14 | > 100 | 191 to 193 °C | CCc1ccc(C2=Nc3c(N)ncnc3OC2)cc1 [Example 1-19]
15 | > 100 | 189 to 192 °C | CCCc1ccc(C2=Nc3c(N)ncnc3OC2)cc1 [Example 1-20]
16 | > 100 | 183 to 186 °C | CCCCc1ccc(C2=Nc3c(N)ncnc3OC2)cc1 [Example 1-21]
17 | > 100 | 142 °C | Nc1ncnc2c1N=C(C1CCCCC1)CO2 [Example 1-22]
18 | > 100 | 209 to 212 °C | Nc1ncnc2c1N=C(c1ccc(OC(F)(F)F)cc1)CO2 [Example 1-23]
19 | > 100 | 219 to 221 °C | Nc1ncnc2c1N=C(c1ccc(C3CCCCC3)cc1)CO2 [Example 1-25]
20 | > 100 | > 220 °C | Nc1nc(N)c2c(n1)OCC(c1ccc(Br)cc1)=N2 [Example 1-26]

Row | IC50 [1] [nM] | melting point | Structure (SMILES)
21 | > 100 | > 220 °C | Nc1ncnc2c1N=C(c1ccc(Cl)c(Cl)c1)CO2 [Example 1-27]
22 | > 100 | 218 to 220 °C | Nc1ncnc2c1N=C(c1ccc(Cl)cc1Cl)CO2 [Example 1-28]
23 | > 100 | > 220 °C | Nc1nc(O)nc2c1N=C(c1ccc(Br)cc1)CO2 [Example 1-29]
24 | > 100 | > 220 °C | CN(C)c1nc(N)c2c(n1)OCC(c1ccc(Br)cc1)=N2 [Example 1-30]
25 | > 100 | 190 to 192 °C | Nc1ncnc2c1N=C(c1c(F)c(F)c(F)c(F)c1F)CO2 [Example 1-31]
26 | > 100 | 232 to 233 °C | Cc1nc(N)c2c(n1)OCC(c1ccc(Br)cc1)N2 (stereo not shown) [Example 1-34]
27 | > 100 | > 220 °C | O=c1[nH]c2ncnc3c2n1C(c1ccc(Br)cc1)CO3 (stereo not shown) [Example 1-35]
28 | > 100 | 198 to 200 °C | Nc1ncnc2c1NC(c1ccc(Cl)c(Cl)c1)CO2 (stereo not shown) [Example 1-36]
29 | > 100 | > 220 °C | Nc1ncnc2c1NC(c1ccc(Cl)cc1Cl)CO2 (stereo not shown) [Example 1-37]
30 | 10 to 100 | 244 to 246 °C | CC1(C)Oc2ncnc(N)c2N=C1c1ccc([C@H]2CC[C@H](CCC(N)=O)CC2)cc1 [Example 2-5]
31 | 10 to 100 | > 250 °C | CC1(C)Oc2ncnc(N)c2NC1c1ccc([C@H]2CC[C@H](CCC(=O)O)CC2)cc1 (stereo partly shown) [Example 2-6]
32 | > 100 | > 220 °C | CC1(C)Oc2ncnc(N)c2NC1c1ccccc1 (stereo not shown) [Example 2-8]
33 | > 100 | > 220 °C | CC1(C)Oc2ncnc3[nH]c(=O)n(c23)C1c1ccc(Br)cc1 (stereo not shown) [Example 2-11]
34 | > 100 | 184 to 186 °C | Nc1ncnc2c1N=C(c1ccc(Br)cc1)C1(CCCC1)O2 [Example 2-13]
35 | > 100 | 226 to 233 °C | Nc1ncnc2c1NC(c1ccc(Br)cc1)C1(CCCC1)O2 (stereo not shown) [Example 2-14]
36 | > 100 | > 230 °C | CC1(C)Oc2ncnc(N)c2NC1c1ccc(Cl)cc1 (stereo not shown) [Example 2-19]
37 | > 100 | > 230 °C | Cc1ccc(C2Nc3c(N)ncnc3OC2(C)C)cc1 (stereo not shown) [Example 2-20]
38 | > 100 | > 230 °C | CC1(C)Oc2ncnc(N)c2NC1c1ccc(F)cc1 (stereo not shown) [Example 2-21]
39 | > 100 | > 230 °C | CC1(C)Oc2ncnc(N)c2NC1c1ccc(C2CCCCC2)cc1 (stereo not shown) [Example 2-22]
40 | > 100 | 225 to 226 °C | COc1ccc(C2Nc3c(N)ncnc3OC2(C)C)cc1 (stereo not shown) [Example 2-24]

Row | IC50 [1] [nM] | melting point | Structure (SMILES)
41 | 10 to 100 | 226 to 227 °C | Cc1nc(N)c2c(n1)OC(C)(C)C(c1ccc(C3CCCCC3)cc1)=N2 [Example 2-26]
42 | > 100 | > 250 °C | CC1(C)Oc2ncnc(N)c2N=C1c1ccc(-c2ccncc2)cc1 [Example 2-28]
43 | > 100 | 231 to 232 °C | CC1(C)Oc2ncnc(N)c2N=C1c1ccc(-c2cccnc2)cc1 [Example 2-29]
44 | > 100 | 210 to 211 °C | CN(C)c1ccc(-c2ccc(C3=Nc4c(N)ncnc4OC3(C)C)cc2)cc1 [Example 2-30]
45 | > 100 | 174 to 175 °C | CC1(C)Oc2ncnc(N)c2N=C1c1ccc(OC2CCCCC2)cc1 [Example 2-32]
46 | > 100 | 189 to 190 °C | CCOc1ccc(C2=Nc3c(N)ncnc3OC2(C)C)cc1 [Example 2-38]
47 | > 100 | 207 to 208 °C | CCOC(=O)C=C1CCC(c2ccc(C3=Nc4c(N)ncnc4OC3(C)C)cc2)CC1 (stereo not shown) [Example 2-39]
48 | < 10 | > 250 °C | CC1(C)Oc2ncnc(N)c2N=C1c1ccc(C2CCC(=CC(=O)O)CC2)cc1 (stereo not shown) [Example 2-40]
49 | > 100 | 201 to 209 °C | CC1CCC(c2ccc(C3=Nc4c(N)ncnc4OC3(C)C)cc2)CC1 (stereo not shown) [Example 2-41]
50 | 10 to 100 | 142 to 144 °C | CC1(C)Oc2ncnc(N)c2N=C1c1ccc(C2CCC(=CC(=O)NCc3ccccc3)CC2)cc1 (stereo not shown) [Example 2-45]
51 | 10 to 100 | 229 to 230 °C | CCNC(=O)C=C1CCC(c2ccc(C3=Nc4c(N)ncnc4OC3(C)C)cc2)CC1 (stereo not shown) [Example 2-47]
52 | 10 to 100 | 212 to 215 °C | CC(C)(C)OC(=O)CNC(=O)C=C1CCC(c2ccc(C3=Nc4c(N)ncnc4OC3(C)C)cc2)CC1 (stereo not shown) [Example 2-52]
53 | 10 to 100 | 267 °C (dec.) | CC1(C)Oc2ncnc(N)c2NC1c1ccc(-c2ccc(CC(=O)O)cc2)cc1 (stereo not shown) [Example 2-54]
54 | 10 to 100 | 251 to 252 °C | CC1(C)Oc2ncnc(N)c2N=C1c1ccc([C@H]2CC[C@H](CNS(C)(=O)=O)CC2)cc1 [Example 2-58]
55 | – | 228 to 229 °C | Cc1nc(N)c2c(n1)OC(C)(C)C(c1ccc([C@H]3CC[C@H](CN4CCCC(O)C4=O)CC3)cc1)=N2 (stereo partly shown) [Example 2-170]
56 | – | 198 to 200 °C | Cc1nc(N)c2c(n1)OC(C)(C)C(c1ccc([C@H]3CC[C@H](CCc4noc(C(F)(F)F)n4)CC3)cc1)=N2 [Example 2-199]
57 | – | > 300 °C | Cc1nc(N)c2c(n1)OC(C)(C)C(c1ccc([C@H]3CC[C@H](Cc4n[nH]c(=O)[nH]4)CC3)c(Cl)c1)=N2 [Example 6-5]
58 | – | > 282 °C | Cc1nc(N)c2c(n1)OC(C)(C)C(c1ccc([C@H]3CC[C@H](Cc4noc(=O)[nH]4)CC3)c(Cl)c1)=N2 [Example 6-6]
59 | – | > 280 °C | Cc1nc(N)c2c(n1)OC(C)(C)C(c1ccc([C@H]3CC[C@H](CC(=O)O)CC3)c(O)c1)=N2 [Example 6-7]

Row | Structure (SMILES) | IC50 [1] [nM] | melting point
60 | Nc1ncnc2c1N=C(c1cccnc1)CO2 [Example 1-17] | > 100 | > 220 °C
